# Earlier results in patent publication US5993851A, “Method for preparing biphasic multilamellar lipid vesicles” (PharmaDerm Laboratories, Ltd., priority 1998, dated 1999).
# System: genital warts
substance,measurement,setting,value
interferon alpha,Clinical outcome in words,in vivo,fairly successful
same,side effects,"systemic application (i.m. injection), genital warts","fever, myalgias, headache, nausea, fatigue"
